The target of the assay is T1, Corticotropin-releasing factor receptor 1 (Homo sapiens, UniProt P34998).
T1 sequence (P34998 whole entry): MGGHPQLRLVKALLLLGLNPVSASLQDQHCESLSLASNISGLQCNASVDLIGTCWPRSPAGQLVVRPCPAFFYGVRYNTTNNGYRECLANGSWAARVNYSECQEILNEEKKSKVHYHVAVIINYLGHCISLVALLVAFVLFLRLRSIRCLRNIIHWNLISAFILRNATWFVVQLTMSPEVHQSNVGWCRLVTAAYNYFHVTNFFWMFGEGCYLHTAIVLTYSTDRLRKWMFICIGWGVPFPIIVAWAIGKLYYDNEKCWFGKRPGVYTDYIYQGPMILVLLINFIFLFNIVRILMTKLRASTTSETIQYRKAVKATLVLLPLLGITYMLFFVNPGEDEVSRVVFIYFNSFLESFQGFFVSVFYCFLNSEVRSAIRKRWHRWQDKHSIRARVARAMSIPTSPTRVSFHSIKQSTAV
Nature of the assay: Inhibition of [125I]CRH binding to human Corticotropin releasing factor receptor 1.

In the case of `CCCN(CC1CC1)c1nc(C)nc(Nc2c(OC)cc(OC)cc2OC)n1`, the Ki came to 8 µM. The same measure for `CCCN(CC1CC1)c1cc(Nc2c(Cl)cc(Cl)cc2Cl)nc(C)n1`: 0.253 µM.

One may read the Ki as a dissociation constant, usually derived from enzyme kinetics or from competition with a known ligand. Read a high Ki as weaker binding.
